Source: patent US20180265467A1, “PYRAZOLIDINE DERIVATIVES AND RELATED COMPOUNDS” (SELVITA S.A., priority 2015, published 2018)

What was measured:
[1] = system: SNU-398 cells; experiment: SNU-398 cellular lactate production assay; format: cell-based; settings: Snu398 cells; shown in FIG. 1
Protocol: In each case, and by methods known to those practiced, measurement of cellular lactate production is used to measure the activity of compounds on cancer cells.
Cells are seeded on 96-well plate in complete culture medium (200 μL media/well) at a density of 80,000 SNU-398 cells/well. The following day, eight serial dilutions of the test compound is prepared in complete culture medium and added to cells in a fresh media for 2 h. Following incubation 30 μL of culture medium from each well is transferred to a corresponding well on a new 96-well plate. In parallel Lactate Standard (30 μL/well) (Sigma, Cat. # L7022) is prepared in order to create a standard curve. 60 μL of Lactate Reagent (P000024, M Dialysis AB) is added to each well containing lactate standards or test samples and Incubated in dark for 10 min at RT followed by measurement of OD at 530 nm in a microplate reader.
Background subtracted values derived from the lactate standard and sample readings are used to determine ED50 (or % of inhibition) from data obtained in SNU-398 cellular lactate production assay:
ED50 is a quantitative measure that indicates how much of a particular compound is needed to reduce SNU-398 lactate production by half. After normalization to DMSO-control, the value of ED50 is determined by the GraphPad Prism 5.0 [log(inhibitor) vs. normalized response—Variable slope]. […]

[2] = target: T1, LDHA (Homo sapiens, UniProt P00338); experiment: LDHA assay (decrease in NADH fluorescence); format: biochemical; settings: numeric bound given instead of a class symbol
T1 construct: purchased Abcam ab93699
Protocol: LDHA and LDHB inhibitory activity of compounds of the present invention is quantified employing the decrease in fluorescence of the cofactor—NADH (being the result of oxidation of NADH to NAD+), over the reaction. […] All the experiments are performed in duplicates in a 96-well plate system (black, flat bottom, non-binding).
The procedure for preparation of the experimental plate is as follows (total volume of the reaction mixture: 200 μL/well):
Conditions for LDHA (Abcam, Cat. No# ab93699) Assay
Mixture of appropriate 1× concentrated reaction buffer (175 μL/well) and 40× concentrated LDHA (5 μL/well); pre-incubate for 30 mins at RT is combined with 20× concentrated pyruvate (10 μL/well) and 20× concentrated NADH (10 μL/well). Tested compounds are dissolved in solvent (DMSO, MeOH, EtOH), and then transferred to the V-bottom 96-well plate (mother plate). Single dilution (for % of inhibition determination) or 8-serial dilutions (for IC50 determination) are prepared using the appropriate solvent. The level of NADH fluorescence is then measured using multimode microplate reader (EnSpire, Perkin Elmer). The reaction should be monitored over 20 minutes with the full plate read performed each 5 minutes. Enzymatic reaction should be run at RT.
IC50 is a quantitative measure that indicates how much of a particular compound (inhibitor) is needed to inhibit a given biological process by half. […]

SMILES | Inhibition of lactate production [1] | IC50 [2] [µM]
O=c1c(Sc2ccccc2Cl)c(O)[nH]n1C(c1ccccc1)c1ccc(N2CCOCC2)cc1 (centres unmarked) [Example 8A, Ammonium 4-[(2-chlorophenyl)sulfanyl]-2-{[4-(morpholin-4-yl)phenyl](phenyl)methyl}-5-oxo-2,5-dihydro-1H-pyrazol-3-olate] | Inhibition of lactate production | –
O=C1N[C@H](Cc2ccccc2)C(O)=C1Sc1cc(Br)ccc1Cl [Example 6E, 5-benzyl-3-[(5-bromo-2-chlorophenyl)sulfanyl]pyrrolidine-2,4-dione] | – | > 300
